Source: PubChem BioAssay AID330 (DTP/NCI, 2004)
“And” between values parts separate entries of the source, which are not always exact repeats. Equal entries are not always repeated. Inconclusive results and toxic doses are left out.

System: P388 leukemia ip, CD2F1 mice, survival T/C
Assay: NCI In Vivo Anticancer Drug Screen. Data for tumor model P388 Leukemia (intraperitoneal) in CD2F1 (CDF1) mice
Settings: endpoint: median survival time, higher = longer survival
Outline: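 Mice carrying the transplanted tumor received test compound or vehicle. Survival was recorded in each group, and the value is the treated-group measurement divided by that of the vehicle-treated control group.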

[1] = dose: 50.0 mg/kg/injection, schedule: Q01DX009 (ip), vehicle: suspension in saline
[2] = dose: 100.0 mg/kg/injection, schedule: Q01DX009 (ip), vehicle: suspension in saline
[3] = dose: 200.0 mg/kg/injection, schedule: Q01DX009 (ip), vehicle: suspension in saline
[4] = dose: 50.0 mg/kg/injection, schedule: Q01DX005 (ip), vehicle: saline with Tween-80

Oc1ccc(/C=N/Nc2nnc(N/N=C/c3ccc(O)cc3O)c3ccccc23)c(O)c1
T/C (dose: 3.12 mg/kg/injection, schedule: Q01DX009 (ip), vehicle: saline): 106 % of control
T/C (dose: 3.12 mg/kg/injection, schedule: Q01DX009 (ip), vehicle: suspension in saline): 116 % of control
T/C (dose: 6.25 mg/kg/injection, schedule: Q01DX009 (ip), vehicle: saline): 112 % of control
T/C (dose: 12.5 mg/kg/injection, schedule: Q01DX009 (ip), vehicle: saline): 117 % of control

COc1ccc(CSC(=S)Nc2ccc(SC)c(Cl)c2)cc1
T/C [1]: 100 % of control
T/C [2]: 108 % of control
T/C [3]: 98 % of control

CCCN(CCC)C(=O)O[Si](C)(C)C(C)(C)C
T/C (dose: 50.0 mg/kg/injection, schedule: Q01DX009 (ip), vehicle: saline with Tween-80): 105 % of control
T/C (dose: 100.0 mg/kg/injection, schedule: Q01DX009 (ip), vehicle: saline with Tween-80): 97 % of control
T/C (dose: 200.0 mg/kg/injection, schedule: Q01DX009 (ip), vehicle: saline with Tween-80): 105 % of control

O=c1[nH]c(=O)n(C(c2ccccc2)c2ccccc2)cc1F
T/C (dose: 12.5 mg/kg/injection, schedule: Q01DX009 (ip), vehicle: suspension in saline): 100 % of control
T/C (dose: 25.0 mg/kg/injection, schedule: Q01DX009 (ip), vehicle: suspension in saline): 89 % of control
T/C [1]: 99 % of control
T/C (dose: 75.0 mg/kg/injection, schedule: Q01DX009 (ip), vehicle: suspension in saline): 101 % of control
T/C [2]: 94 % of control
T/C (dose: 150.0 mg/kg/injection, schedule: Q01DX009 (ip), vehicle: suspension in saline): 90 % of control

CC(c1ccccc1)C1CCN(C)CC1 (centres undefined)
T/C (dose: 12.5 mg/kg/injection, schedule: Q04DX002 (ip), vehicle: saline): 99 % of control
T/C (dose: 25.0 mg/kg/injection, schedule: Q04DX002 (ip), vehicle: saline): 100 % of control

O=NNc1ccc([N+](=O)[O-])cc1
T/C (dose: 3.12 mg/kg/injection, schedule: Q01DX009 (ip), vehicle: water): 102 % of control
T/C (dose: 6.25 mg/kg/injection, schedule: Q01DX009 (ip), vehicle: water): 112 % of control and 121 % of control
T/C (dose: 25.0 mg/kg/injection, schedule: Q01DX009 (ip), vehicle: water): 152 % of control
T/C (dose: 50.0 mg/kg/injection, schedule: Q01DX009 (ip), vehicle: water): 159 % of control

CCOC(=O)C(=O)C(C#N)c1ccccc1CC#N (centres undefined)
T/C [4]: 109 % of control
T/C (dose: 100.0 mg/kg/injection, schedule: Q01DX005 (ip), vehicle: saline with Tween-80): 97 % of control

CCOC(=O)/C(C=NC1CC(N=C/C(C(=O)OCC)=C(\C)O)CC(N=C/C(C(=O)OCC)=C(\C)O)C1)=C(/C)O (centres undefined)
T/C (dose: 6.25 mg/kg/injection, schedule: Q01DX009 (ip), vehicle: Klucel (hydroxypropylcellulose) (HPC)): 106 % of control
T/C (dose: 12.5 mg/kg/injection, schedule: Q01DX009 (ip), vehicle: Klucel (hydroxypropylcellulose) (HPC)): 103 % of control
T/C (dose: 25.0 mg/kg/injection, schedule: Q01DX009 (ip), vehicle: Klucel (hydroxypropylcellulose) (HPC)): 97 % of control
T/C (dose: 50.0 mg/kg/injection, schedule: Q01DX009 (ip), vehicle: Klucel (hydroxypropylcellulose) (HPC)): 93 % of control

[Br][Pt+2][Br].[NH-]C1CCCC1[NH-] (centres undefined)
T/C (dose: 12.5 mg/kg/injection, schedule: Q04DX002 (ip), vehicle: saline with Tween-80): 164 % of control
T/C (dose: 25.0 mg/kg/injection, schedule: Q04DX002 (ip), vehicle: saline with Tween-80): 197 % of control and 174 % of control
T/C (dose: 50.0 mg/kg/injection, schedule: Q04DX002 (ip), vehicle: saline with Tween-80): 93 % of control and 212 % of control

COC(=O)C1(OC(=O)CCC(=O)O)C(=O)NC2=C1C(=O)c1ccccc1C2=O (centres undefined)
T/C [4]: 109 % of control and 119 % of control
T/C (dose: 200.0 mg/kg/injection, schedule: Q01DX005 (ip), vehicle: saline with Tween-80): 111 % of control and 113 % of control

CCC(C)(Oc1ccc(Cc2ccc(Cl)cc2)cc1)C(=O)OCc1cccnc1 (centres undefined)
T/C [1]: 95 % of control
T/C [2]: 95 % of control
T/C [3]: 94 % of control

CS(=O)CC(Nc1ccccc1)c1ccccc1 (centres undefined)
T/C (dose: 60.0 mg/kg/injection, schedule: Q01DX005 (ip), vehicle: Klucel (hydroxypropylcellulose) (HPC)): 108 % of control
T/C (dose: 120.0 mg/kg/injection, schedule: Q01DX005 (ip), vehicle: Klucel (hydroxypropylcellulose) (HPC)): 95 % of control
T/C (dose: 240.0 mg/kg/injection, schedule: Q01DX005 (ip), vehicle: Klucel (hydroxypropylcellulose) (HPC)): 87 % of control
